Assay results: patent publication US20230085307A1, “PYRIDAZINONE COMPOUND AND HERBICIDE” (NISSAN CHEMICAL CORPORATION, priority 2019, published 2023)

Key:
southern crabgrass [1] = assay: Test Example 5: herbicidal effect by foliage application, plastic box (Table 20, symbol F); assay type: in vivo, southern crabgrass (Digitaria ciliaris); conditions: 320 g/ha, foliage application after 14-day growth, evaluated three weeks after application
How it was run: (§1)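 Sow seeds spot-wise in sterilized diluvial soil; cover with ~1.5 cm soil. Grow 14 days in greenhouse, 25° C. to 30° C. Spray foliage with emulsion diluted to predetermined amount. Rate effect after 3 weeks.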

persian speedwell [2] = assay: Test Example 4: herbicidal effect by soil treatment (Table 19, symbol R); assay type: in vivo, Persian speedwell (Veronica persica); conditions: amount of applied herbicide 320 g/ha
How it was run: (§2)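 Soil-surface application: an emulsion agent diluted with water to the predetermined dose is sprayed uniformly over seeds lying under roughly 1.5 cm of sterilized diluvial soil. Boxes stay in a greenhouse at 25° C. to 30° C. Three weeks later, each species is graded on previously defined criteria.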

lambsquarters [3] = assay: Test Example 5: herbicidal effect by foliage application, plastic box (Table 20, symbol O); assay type: in vivo, lambsquarters (Chenopodium album); conditions: 320 g/ha, foliage application after 14-day growth, evaluated three weeks after application
How it was run: as §1

southern crabgrass [4] = assay: Test Example 4: herbicidal effect by soil treatment (Table 19, symbol F); assay type: in vivo, southern crabgrass (Digitaria ciliaris); conditions: amount of applied herbicide 320 g/ha
How it was run: as §2

redroot pigweed [5] = assay: Test Example 4: herbicidal effect by soil treatment (Table 19, symbol N); assay type: in vivo, redroot pigweed (Amaranthus retroflexus); conditions: amount of applied herbicide 320 g/ha
How it was run: as §2

chickweed [6] = assay: Test Example 5: herbicidal effect by foliage application, plastic box (Table 20, symbol P); assay type: in vivo, common chickweed (Stellaria media); conditions: 320 g/ha, foliage application after 14-day growth, evaluated three weeks after application
How it was run: as §1

windgrass [7] = assay: Test Example 5: herbicidal effect by foliage application, plastic box (Table 20, symbol L); assay type: in vivo, windgrass (Apera spica-venti); conditions: 320 g/ha, foliage application after 14-day growth, evaluated three weeks after application
How it was run: as §1

green foxtail [8] = assay: Test Example 5: herbicidal effect by foliage application, plastic box (Table 20, symbol G); assay type: in vivo, green foxtail (Setaria viridis); conditions: 320 g/ha, foliage application after 14-day growth, evaluated three weeks after application
How it was run: as §1

oval-leafed pondweed = assay: Test Example 1: herbicidal activity, application before weed generation under submerged conditions (Table 16, symbol C); assay type: in vivo, oval-leafed pondweed (Monochoria vaginalis); conditions: amount of applied herbicide 320 g/ha
How it was run: (§3)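 Alluvial soil was flooded to 4 cm depth, weed seeds were sown mixed and 2.5-leaf rice seedlings were transplanted. On sowing day, the compound's emulsion, diluted in water to a set dose, was applied to the water surface. Plants grew at 25–30 °C and were scored 0–5 after three weeks.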

Italian ryegrass [9] = assay: Test Example 4: herbicidal effect by soil treatment (Table 19, symbol K); assay type: in vivo, Italian ryegrass (Lolium multiflorum); conditions: amount of applied herbicide 320 g/ha
How it was run: as §2

velvetleaf [10] = assay: Test Example 5: herbicidal effect by foliage application, plastic box (Table 20, symbol M); assay type: in vivo, velvetleaf (Abutilon theophrasti); conditions: 320 g/ha, foliage application after 14-day growth, evaluated three weeks after application
How it was run: as §1

chickweed [11] = assay: Test Example 4: herbicidal effect by soil treatment (Table 19, symbol P); assay type: in vivo, common chickweed (Stellaria media); conditions: amount of applied herbicide 320 g/ha
How it was run: as §2

wild oat [12] = assay: Test Example 5: herbicidal effect by foliage application, plastic box (Table 20, symbol I); assay type: in vivo, wild oat (Avena fatua); conditions: 320 g/ha, foliage application after 14-day growth, evaluated three weeks after application
How it was run: as §1

lambsquarters [13] = assay: Test Example 4: herbicidal effect by soil treatment (Table 19, symbol O); assay type: in vivo, lambsquarters (Chenopodium album); conditions: amount of applied herbicide 320 g/ha
How it was run: as §2

Japanese bulrush = assay: Test Example 1: herbicidal activity, application before weed generation under submerged conditions (Table 16, symbol B); assay type: in vivo, Japanese bulrush (Schoenoplectus juncoides); conditions: amount of applied herbicide 320 g/ha
How it was run: as §3

blackgrass [14] = assay: Test Example 4: herbicidal effect by soil treatment (Table 19, symbol J); assay type: in vivo, blackgrass (Alopecurus myosuroides); conditions: amount of applied herbicide 320 g/ha
How it was run: as §2

barnyard grass [15] = assay: Test Example 4: herbicidal effect by soil treatment (Table 19, symbol H); assay type: in vivo, barnyard grass (Echinochloa crus-galli); conditions: amount of applied herbicide 320 g/ha
How it was run: as §2

velvetleaf [16] = assay: Test Example 4: herbicidal effect by soil treatment (Table 19, symbol M); assay type: in vivo, velvetleaf (Abutilon theophrasti); conditions: amount of applied herbicide 320 g/ha
How it was run: as §2

persian speedwell [17] = assay: Test Example 5: herbicidal effect by foliage application, plastic box (Table 20, symbol R); assay type: in vivo, Persian speedwell (Veronica persica); conditions: 320 g/ha, foliage application after 14-day growth, evaluated three weeks after application
How it was run: as §1

late watergrass = assay: Test Example 1: herbicidal activity, application before weed generation under submerged conditions (Table 16, symbol A); assay type: in vivo, late watergrass (Echinochloa oryzicola); conditions: amount of applied herbicide 320 g/ha
How it was run: as §3

barnyard grass [18] = assay: Test Example 5: herbicidal effect by foliage application, plastic box (Table 20, symbol H); assay type: in vivo, barnyard grass (Echinochloa crus-galli); conditions: 320 g/ha, foliage application after 14-day growth, evaluated three weeks after application
How it was run: as §1

Italian ryegrass [19] = assay: Test Example 5: herbicidal effect by foliage application, plastic box (Table 20, symbol K); assay type: in vivo, Italian ryegrass (Lolium multiflorum); conditions: 320 g/ha, foliage application after 14-day growth, evaluated three weeks after application
How it was run: as §1

blackgrass [20] = assay: Test Example 5: herbicidal effect by foliage application, plastic box (Table 20, symbol J); assay type: in vivo, blackgrass (Alopecurus myosuroides); conditions: 320 g/ha, foliage application after 14-day growth, evaluated three weeks after application
How it was run: as §1

windgrass [21] = assay: Test Example 4: herbicidal effect by soil treatment (Table 19, symbol L); assay type: in vivo, windgrass (Apera spica-venti); conditions: amount of applied herbicide 320 g/ha
How it was run: as §2

false cleavers = assay: Test Example 4: herbicidal effect by soil treatment (Table 19, symbol Q); assay type: in vivo, false cleavers (Galium spurium); conditions: amount of applied herbicide 320 g/ha
How it was run: as §2

redroot pigweed [22] = assay: Test Example 5: herbicidal effect by foliage application, plastic box (Table 20, symbol N); assay type: in vivo, redroot pigweed (Amaranthus retroflexus); conditions: 320 g/ha, foliage application after 14-day growth, evaluated three weeks after application
How it was run: as §1

green foxtail [23] = assay: Test Example 4: herbicidal effect by soil treatment (Table 19, symbol G); assay type: in vivo, green foxtail (Setaria viridis); conditions: amount of applied herbicide 320 g/ha
How it was run: as §2

wild oat [24] = assay: Test Example 4: herbicidal effect by soil treatment (Table 19, symbol I); assay type: in vivo, wild oat (Avena fatua); conditions: amount of applied herbicide 320 g/ha
How it was run: as §2

Question: For `Cc1nn(C)c(=O)c(-c2c(-c3ccc(C(C)C)cc3)sc3c(F)cccc23)c1O` [4-042], which “herbicidal effect on F: southern crabgrass (evaluation grade 0-5)” value (southern crabgrass [1]) is on record?
Answer: Its value is 1 (Herbicidal rate of 5% or more and less than 20%).

Question: And the “Herbicidal effect by soil treatment, R: persian speedwell” value (persian speedwell [2])?
Answer: The value was 3 (Herbicidal rate of 40% or more and less than 70%).

Question: And the “herbicidal effect on O: lambsquarters (evaluation grade 0-5)” value (lambsquarters [3])?
Answer: Its value is 4 (Herbicidal rate of 70% or more and less than 90%).

Question: What about the “Herbicidal effect by soil treatment, F: southern crabgrass” value (southern crabgrass [4]) of the same compound?
Answer: The value was 0 (Herbicidal rate of 5% or less (almost no effect)).

Question: What about the “Herbicidal effect by soil treatment, N: redroot pigweed” value (redroot pigweed [5]) of the same compound?
Answer: Its value is 4 (Herbicidal rate of 70% or more and less than 90%).

Question: And the “herbicidal effect on P: chickweed (evaluation grade 0-5)” value (chickweed [6])?
Answer: The value was 5 (Herbicidal rate of 90% or more (almost completely withered)).

Question: And the “herbicidal effect on L: windgrass (evaluation grade 0-5)” value (windgrass [7])?
Answer: The value was 0 (Herbicidal rate of 5% or less (almost no effect)).

Question: And the “herbicidal effect on G: green foxtail (evaluation grade 0-5)” value (green foxtail [8])?
Answer: Its value is 4 (Herbicidal rate of 70% or more and less than 90%).

Question: What about the “Herbicidal effect, C: oval-leafed pondweed” value (oval-leafed pondweed) of the same compound?
Answer: The value was 0 (Herbicidal rate of 5% or less (almost no effect)).

Question: And the “Herbicidal effect by soil treatment, K: Italian ryegrass” value (Italian ryegrass [9])?
Answer: Its value is 0 (Herbicidal rate of 5% or less (almost no effect)).

Question: And the “herbicidal effect on M: velvetleaf (evaluation grade 0-5)” value (velvetleaf [10])?
Answer: Its value is 5 (Herbicidal rate of 90% or more (almost completely withered)).

Question: What about the “Herbicidal effect by soil treatment, P: chickweed” value (chickweed [11]) of the same compound?
Answer: Its value is 5 (Herbicidal rate of 90% or more (almost completely withered)).

Question: What about the “herbicidal effect on I: wild oat (evaluation grade 0-5)” value (wild oat [12]) of the same compound?
Answer: The value was 0 (Herbicidal rate of 5% or less (almost no effect)).

Question: And the “Herbicidal effect by soil treatment, O: lambsquarters” value (lambsquarters [13])?
Answer: The value was 3 (Herbicidal rate of 40% or more and less than 70%).

Question: And the “Herbicidal effect, B: Japanese bulrush” value (Japanese bulrush)?
Answer: The value was 3 (Herbicidal rate of 40% or more and less than 70%).

Question: And the “Herbicidal effect by soil treatment, J: blackgrass” value (blackgrass [14])?
Answer: Its value is 0 (Herbicidal rate of 5% or less (almost no effect)).

Question: What about the “Herbicidal effect by soil treatment, H: barnyard grass” value (barnyard grass [15]) of the same compound?
Answer: The value was 1 (Herbicidal rate of 5% or more and less than 20%).

Question: What about the “Herbicidal effect by soil treatment, M: velvetleaf” value (velvetleaf [16]) of the same compound?
Answer: The value was 1 (Herbicidal rate of 5% or more and less than 20%).

Question: And the “herbicidal effect on R: persian speedwell (evaluation grade 0-5)” value (persian speedwell [17])?
Answer: Its value is 5 (Herbicidal rate of 90% or more (almost completely withered)).

Question: What about the “Herbicidal effect, A: late watergrass” value (late watergrass) of the same compound?
Answer: The value was 3 (Herbicidal rate of 40% or more and less than 70%).

Question: And the “herbicidal effect on H: barnyard grass (evaluation grade 0-5)” value (barnyard grass [18])?
Answer: Its value is 5 (Herbicidal rate of 90% or more (almost completely withered)).

Question: And the “herbicidal effect on K: Italian ryegrass (evaluation grade 0-5)” value (Italian ryegrass [19])?
Answer: Its value is 3 (Herbicidal rate of 40% or more and less than 70%).

Question: What about the “herbicidal effect on J: blackgrass (evaluation grade 0-5)” value (blackgrass [20]) of the same compound?
Answer: The value was 0 (Herbicidal rate of 5% or less (almost no effect)).

Question: And the “Herbicidal effect by soil treatment, L: windgrass” value (windgrass [21])?
Answer: The value was 0 (Herbicidal rate of 5% or less (almost no effect)).

Question: And the “Herbicidal effect by soil treatment, Q: false cleavers” value (false cleavers)?
Answer: The value was 0 (Herbicidal rate of 5% or less (almost no effect)).

Question: What about the “herbicidal effect on N: redroot pigweed (evaluation grade 0-5)” value (redroot pigweed [22]) of the same compound?
Answer: Its value is 5 (Herbicidal rate of 90% or more (almost completely withered)).

Question: What about the “Herbicidal effect by soil treatment, G: green foxtail” value (green foxtail [23]) of the same compound?
Answer: The value was 0 (Herbicidal rate of 5% or less (almost no effect)).

Question: And the “Herbicidal effect by soil treatment, I: wild oat” value (wild oat [24])?
Answer: Its value is 0 (Herbicidal rate of 5% or less (almost no effect)).
